The source of these data is patent publication US12168008B2, “Oxabicycloheptanes for modulation of immune response” (LIXTE BIOTECHNOLOGY, INC., priority 2016, dated 2024).

Where only a bound is given, the exact number is not on record here.

Data set [1] deals with solid tumor. The following applies: cited from earlier work.
The conditions of data set [2]: human, in vivo; cited from earlier work.
The nature of data set [3]: clinical. The class given is in vivo, human. The following applies: for Cmax / AUC / Tmax: endothall after LB-100 2.33 mg/m^2. The method, then: The main objective was to determine the safety, tolerability, and maximum tolerated dose of LB-100 given intravenously daily for three consecutive days every 3 weeks. The secondary objectives were to document any evidence of potential anti-tumor activity and obtain pharmacokinetic data on LB-100 and a metabolite, endothall, in patients receiving LB-100 at the MTD (Quang et al., 2016).
The plasma concentrations of LB-100 and endothall were measured (Quang et al., 2016) prior to and over 4 hours after completion of the 2-hour infusion at the MTD of 2.33 mg/m2 of LB-100 on day 1 in one patient and on day 1 and 3 in two patients. […] Plasma concentrations of endothall were low throughout the infusion, being below the lower limit of detection (5 ng/mL) in one patient.

In the case of `C[C@@](O)(/C=C/[C@H]1CC=CC(=O)O1)[C@@H](C[C@@H](O)\C=C/C=C\C=C\CO)OP(=O)(O)O` [fostriecin], in data set [1] (in vivo), the “dose-limiting toxicity (DLT)” value is listed as “without dose-limiting toxicity”. Further, in data set [1] (of 46 solid tumor patients), the disease stability is reported as 16 (34.8%) patients (%).

“ipilimumab: human cytotoxic T-lymphocyte antigen 4 (CTLA-4)-blocking antibody”: in data set [2], the incidence of death is reported as 2.1% and the “patients with grade 3 or 4 adverse events” value is listed as “up to 15%”.

As a reminder, the Cmax is the peak of the concentration-time curve. By AUC is commonly meant the area under the concentration-time curve, a measure of exposure. Higher therefore signals high exposure. As usually defined, the Tmax is the time at which the peak concentration occurs. Take `O=C(O)[C@@H]1[C@H](C(=O)O)[C@H]2CC[C@@H]1O2` [endothall]: the Cmax result is recorded as “N-D^a” in data set [3] (subject 001-0030, day 1, N-D = below lower limit of quantification (5 ng/ml)); “N-D^a” in data set [3] (subject 001-0030, day 3, N-D = below lower limit of quantification (5 ng/ml)); 11.5 ng/mL in data set [3] (subject 002-0028, day 1); 34.3 ng/mL in data set [3] (subject 002-0028, day 3); 14.8 ng/mL in data set [3] (subject 003-0029, day 1). The AUC in data set [3] (subject 002-0028, day 1) amounted to 22 ng·h/mL; in data set [3] (subject 002-0028, day 3), 143 ng·h/mL; in data set [3] (subject 003-0029, day 1), 28 ng·h/mL. The Tmax in data set [3] (subject 002-0028, day 1) is reported as 4 h; in data set [3] (subject 002-0028, day 3) it was 4 h; in data set [3] (subject 003-0029, day 1), 4 h. For the same compound, the “plasma concentration of endothall” value in data set [3] (one patient, after LB-100 2.33 mg/m2, lower limit of detection) is reported as less than 5 ng/mL. Besides, the “maximal concentration of endothall” value in data set [3] (other two patients, last sampling time point (4 h)) is 34.7 ng/mL.
